Conditions: 298.2 K

Which solubility (mole fraction) (in 1,4-dioxane) does the source give for `O=C(O)c1cccc([N+](=O)[O-])c1` here?
The solubility (mole fraction) was 0.193.

And the solubility (mole fraction) (in 2-methyl-1-butanol)?
Its solubility (mole fraction) is 0.11.

What about the solubility (mole fraction) (in 2-methyl-1-pentanol) of the same compound?
The solubility (mole fraction) was 0.134.

What about the solubility (mole fraction) (in 2-pentanol) of the same compound?
Its solubility (mole fraction) is 0.176.

What about the solubility (mole fraction) (in THF) of the same compound?
The solubility (mole fraction) was 0.36.

What about the solubility (mole fraction) (in dibutyl ether) of the same compound?
The solubility (mole fraction) was 0.0346.

And the solubility (mole fraction) (in diethyl ether)?
Its solubility (mole fraction) is 0.127.

What about the solubility (mole fraction) (in diisopropyl ether) of the same compound?
Its solubility (mole fraction) is 0.0591.

And the solubility (mole fraction) (in ethanol)?
Its solubility (mole fraction) is 0.175.

What about the solubility (mole fraction) (in ethyl acetate) of the same compound?
Its solubility (mole fraction) is 0.138.

And the solubility (mole fraction) (in isobutanol)?
Its solubility (mole fraction) is 0.113.

What about the solubility (mole fraction) (in isopentanol) of the same compound?
Its solubility (mole fraction) is 0.145.

And the solubility (mole fraction) (in isopropanol)?
The solubility (mole fraction) was 0.17.

And the solubility (mole fraction) (in methanol)?
The solubility (mole fraction) was 0.211.

What about the solubility (mole fraction) (in methyl acetate) of the same compound?
Its solubility (mole fraction) is 0.147.

What about the solubility (mole fraction) (in n-butanol) of the same compound?
The solubility (mole fraction) was 0.146.

And the solubility (mole fraction) (in n-butyl acetate)?
Its solubility (mole fraction) is 0.108.

And the solubility (mole fraction) (in n-decanol)?
Its solubility (mole fraction) is 0.139.

What about the solubility (mole fraction) (in n-heptanol) of the same compound?
Its solubility (mole fraction) is 0.136.

And the solubility (mole fraction) (in n-hexanol)?
Its solubility (mole fraction) is 0.139.

And the solubility (mole fraction) (in n-octanol)?
Its solubility (mole fraction) is 0.144.

What about the solubility (mole fraction) (in n-pentanol) of the same compound?
The solubility (mole fraction) was 0.143.

What about the solubility (mole fraction) (in n-propanol) of the same compound?
Its solubility (mole fraction) is 0.149.

What about the solubility (mole fraction) (in propylene carbonate) of the same compound?
Its solubility (mole fraction) is 0.0834.

What about the solubility (mole fraction) (in sec-butanol) of the same compound?
The solubility (mole fraction) was 0.188.

And the solubility (mole fraction) (in tert-butanol)?
Its solubility (mole fraction) is 0.217.

From BigSolDB 2.1
